In patent US10752587B2, “Homobispiperidinyl derivatives as liver X receptor beta agonists, compositions and their use” (Merck Sharp & Dohme Corp., priority 2015, dated 2020):
Where two headings read alike, the source gives them in different places.

Legend:
[1] = target: T1, glutathione-S-transferase (GST) tagged LXRbeta LBD (ligand binding domain) (Homo sapiens, UniProt P55055); test: LanthaScreen TR-FRET Liver X Receptor Coactivator Assay, co-activator recruitment to LXRbeta LBD; type: biochemical
T1 construct: purchased Invitrogen pv4658.pps
T1 sequence (P55055 222-460 limits assumed): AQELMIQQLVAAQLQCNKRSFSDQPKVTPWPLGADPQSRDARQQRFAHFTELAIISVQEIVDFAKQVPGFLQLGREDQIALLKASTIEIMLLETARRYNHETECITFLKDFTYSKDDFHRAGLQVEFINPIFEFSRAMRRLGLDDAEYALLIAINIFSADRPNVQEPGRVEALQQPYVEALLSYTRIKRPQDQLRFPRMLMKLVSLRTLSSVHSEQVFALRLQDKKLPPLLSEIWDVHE
How it was run: (§1)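 Readout is time-resolved FRET between a terbium anti-GST antibody bound to the LBD and a fluorescein-tagged coactivator peptide recruited on ligand binding. Plates were incubated at room temperature before reading. Potency (IP) and efficacy (Emax) are referenced to T0901317.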

[2] = target: T2, glutathione-S-transferase (GST) tagged LXRalpha LBD (ligand binding domain) (Homo sapiens, UniProt Q13133); test: LanthaScreen TR-FRET Liver X Receptor Coactivator Assay, co-activator recruitment to LXRalpha LBD; type: biochemical; settings: for LXR alpha IP (nM) / EC50: potency (Inflection Point, IP), co-activator recruitment to LXRalpha LBD, in relation to T0901317; for EC50: read-out: LXR alpha IP
T2 construct: purchased Invitrogen pv4655
T2 sequence (Q13133 209-447 limits assumed): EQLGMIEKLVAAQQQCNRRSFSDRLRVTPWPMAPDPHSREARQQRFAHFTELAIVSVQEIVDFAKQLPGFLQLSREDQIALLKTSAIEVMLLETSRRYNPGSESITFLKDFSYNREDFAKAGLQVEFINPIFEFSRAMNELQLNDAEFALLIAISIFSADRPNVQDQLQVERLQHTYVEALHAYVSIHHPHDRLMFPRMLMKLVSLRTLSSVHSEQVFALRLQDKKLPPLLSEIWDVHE
How it was run: as §1

[3] = efficacy at max dose, in relation to reference dual agonist T0901317, read-out: LXR beta Activity @ max dose (%)
[4] = potency (Inflection Point, IP), co-activator recruitment to LXRbeta LBD, in relation to T0901317, read-out: LXR beta IP
[5] = efficacy at max dose, in relation to reference dual agonist T0901317, read-out: LXR alpha Activity @ max dose (%)
[6] = LXR beta IP (nM), potency (Inflection Point, IP), co-activator recruitment to LXRbeta LBD, in relation to T0901317
[7] = read-out: LXR beta Activity @ max dose (%)

Emax [1, 3] | EC50 [1, 4] | Emax [2, 5] | LXR alpha IP (nM) [2] | EC50 [2] | SMILES | also measured
35% | 5 nM | 4% | NO IP | – | COc1cccc([C@@](O)(C(=O)N2CCC(C)(CC3CCN(c4ccc(C(=O)N(C)C)c(Cl)n4)CC3)CC2)C(F)(F)F)c1 [Example 7-51, 2-chloro-N,N-dimethyl-6-[4-({4-methyl-1[(2R)-3,3,3-trifluoro-2-hydroxy-2-(3-methoxyphenyl)propanoyl]piperidin-4-yl}methyl)piperidin-1-yl]pyridine-3-carboxamide] | –
84% | 24 nM | 42% | – | 0.256 µM | CNC(=O)c1ccc(N2CCC(CC3CCN(C(=O)[C@](O)(c4cccc(C(F)(F)F)c4)C(F)(F)F)CC3)CC2)nc1Cl [Example 7-150, 2-chloro-N-methyl-6-{4-[(1-{(2R)-3,3,3-trifluoro-2-hydroxy-2-[3-(trifluoromethyl)phenyl]propanoyl}piperidin-4-yl)methyl]piperidin-1-yl}pyridine-3-carboxamide] | –
40% | 3 nM | 0% | NO IP | – | CC(C)(C)OC(=O)NC1CN(C(=O)c2ccc(N3CCC(CC4CCN(C(=O)[C@](O)(c5cc(Cl)cc(Cl)c5)C(F)(F)F)CC4)CC3)cc2Cl)C1 [Example 4-25, tert-butyl [1-({2-chloro-4-[4-({1-[(2R)-2-(3,5-dichlorophenyl)-3,3,3-trifluoro-2-hydroxypropanoyl]piperidin-4-yl}methyl)piperidin-1-yl]phenyl}carbonyl)azetidin-3-yl]carbamate] | –
66% | 3 nM | 22% | – | 0.06 µM | CN(C)C(=O)c1ccc(N2CCC(CC3(C)CCN(C(=O)[C@](O)(c4cccc(Cl)c4)C(F)(F)F)CC3)CC2)nc1Cl [Example 7-47, 2-chloro-6-[4-({1-[(2R)-2-(3-chlorophenyl)-3,3,3-trifluoro-2-hydroxypropanoyl]-4-methylpiperidin-4-yl}methyl)piperidin-1-yl]-N,N-dimethylpyridine-3-carboxamide] | –
86% | 6 nM | 19% | – | 0.112 µM | COc1cc(F)cc(C(O)(C(=O)N2CCC(CC3CCN(c4ccc(C(=O)N(C)C)c(Cl)n4)CC3)CC2)C(F)(F)F)c1 (stereo not drawn) [Example 7-89, 2-chloro-N,N-dimethyl-6-[4-({1-[3,3,3-trifluoro-2-(3-fluoro-5-methoxyphenyl)-2-hydroxypropanoyl]piperidin-4-yl}methyl)piperidin-1-yl]pyridine-3-carboxamide] | –
125% | 34 nM | 31% | – | 1.61 µM | CN(C)C(=O)c1ccc(N2CCC(CC3CCN(C(=O)[C@@](O)(c4cc(F)cc(Cl)c4)C(F)(F)F)CC3)CC2)nc1Cl [Example 7-113, 2-chloro-6-[4-({1-[(2S)-2-(3-chloro-5-fluorophenyl)-3,3,3-trifluoro-2-hydroxypropanoyl]piperidin-4-yl}methyl)piperidin-1-yl]-N,N-dimethylpyridine-3-carboxamide] | –
91% | 26 nM | 26% | – | 0.223 µM | CNC(=O)c1ccc(N2CCC(CC3CCN(C(=O)[C@](O)(c4cccc(OC(F)(F)F)c4)C(F)(F)F)CC3)CC2)nc1Cl [Example 7-139, 2-chloro-N-methyl-6-{4-[(1-{(2R)-3,3,3-trifluoro-2-hydroxy-2-[3-(trifluoromethoxy)phenyl]propanoyl}piperidin-4-yl)methyl]piperidin-1-yl}pyridine-3-carboxamide] | –
65% | 28 nM | 19% | – | 0.762 µM | CNC(=O)c1ccc(N2CCC(CC3CCN(C(=O)C(O)(c4cccc(C)c4)C(F)(F)F)CC3)CC2)cc1Cl (stereo not drawn) [Example 7-36, 2-chloro-N-methyl-4-[4-({1-[3,3,3-trifluoro-2-hydroxy-2-(3-methylphenyl)propan-oyl]piperidin-4-yl}methyl)piperidin-1-yl]benzamide] | –

Continued, compound first:

SMILES | Emax [1, 3] | EC50 [1, 4] | Emax [2, 5] | LXR alpha IP (nM) [2] | EC50 [2] | also measured
Cc1cccc([C@@](O)(C(=O)N2CCC(CC3CCN(c4ccc(C(=O)N(C)C)cc4)CC3)CC2)C(F)(F)F)c1 [Example 2-129, N,N-dimethyl-4-[4-({1-[(2R)-3,3,3-trifluoro-2-hydroxy-2-(3-methylphenyl)propanoyl]piperidin-4-yl}methyl)piperidin-1-yl]benzamide] | 51% | 51 nM | 5% | NO IP | – | –
CN(C)C(=O)c1ccc(N2CCC(CC3CCN(S(=O)(=O)c4cccc(OC(F)(F)F)c4)CC3)CC2)cc1Cl [Example 13-16] | – | – | – | – | – | EC50 ([1]; co-activator recruitment to GST-LXRbeta LBD, TR-FRET, read-out: LXR beta IP (Inflection Point, potency)): 135 nM; Emax ([1]; efficacy in relation to reference dual agonist T0901317, read-out: LXR beta Activity @ max dose): 35%; LXR alpha IP (Inflection Point, potency) ([2]; co-activator recruitment to GST-LXRalpha LBD, TR-FRET): NO IP; Emax ([2]; efficacy in relation to reference dual agonist T0901317, read-out: LXR alpha Activity @ max dose): 0%
COc1cccc([C@@](O)(C(=O)N2CCC(CC3CCN(c4cnc(C(=O)N(C)C)c(C)c4)CC3)CC2)C(F)(F)F)c1 [Example 2-2, N,N,3-trimethyl-5-[4-({1-[(2R)-3,3,3-trifluoro-2-hydroxy-2-(3-methoxy-phenyl)propanoyl]piperidin-4-yl}methyl)piperidin-1-yl]pyridine-2-carboxamide] | 43% | 155 nM | 5% | NO IP | – | –
CN(C)C(=O)c1ccc(N2CCC(CC3CCN(C(=O)C4(c5ccccc5)CCC4)CC3)CC2)cc1Cl [Example 2-18, 2-chloro-N,N-dimethyl-4-[4-({1-[(1-phenylcyclobutyl)carbonyl]piperidin-4-yl}methyl)piperidin-1-yl]benzamide] | 46% | 151 nM | 6% | NO IP | – | –
CN(C)C(=O)c1ccc(N2CCC(CC3(C)CCN(C(=O)[C@](O)(c4cccc(OC(F)(F)F)c4)C(F)(F)F)CC3)CC2)cc1Cl [Example 2-51, 2-chloro-N,N-dimethyl-4-{4-[(4-methyl-1-{(2R)-3,3,3-trifluoro-2-hydroxy-2-[3-(trifluoro-methoxy)phenyl]propanoyl}piperidin-4-yl)methyl]piperidin-1-yl}benzamide] | 57% | 32 nM | 11% | NO IP | – | –
COc1cccc([C@@](O)(C(=O)N2CCC(CC3(C)CCN(c4ccc(C(=O)N(C)C)c(Cl)c4)CC3)CC2)C(F)(F)F)c1 [Example 3-1, (R)-2-chloro-N,N-dimethyl-4-(4-methyl-4-((1-(3,3,3-trifluoro-2-hydroxy-2-(3-methoxyphenyl)propanoyl)piperidin-4-yl)methyl)piperidin-1-yl)benzamide] | – | – | 5% | NO IP | – | EC50 [1, 6]: 35 nM; Emax [1, 7]: 63%
Cc1cc(N2CCC(CC3CCN(C(=O)[C@](O)(c4cccc(C(F)(F)F)c4)C(F)(F)F)CC3)CC2)ccc1C(=O)N(C)C [Example 2-148, N,N,2-trimethyl-4-{4-[(1-{(2R)-3,3,3-trifluoro-2-hydroxy-2-[3-(trifluoromethyl)phenyl]propanoyl}piperidin-4-yl)methyl]piperidin-1-yl}benzamide] | 62% | 24 nM | 22% | – | 0.4 µM | –
CN(C)C(=O)c1ccc(N2CCC(CC3(C)CCN(C(=O)[C@](O)(c4cccc(Cl)c4)C(F)(F)F)CC3)CC2)cc1Cl [Example 2-47, 2-chloro-4-[4-({1-[(2R)-2-(3-chloro-phenyl)-3,3,3-trifluoro-2-hydroxy-propanoyl]-4-methyl-piperidin-4-yl}methyl)piperidin-1-yl]-N,N-dimethyl-benzamide] | 49% | 4 nM | 7% | NO IP | – | –
CN(C)C(=O)c1ccc(N2CCC(CC3CCN(C(=O)C(C)(C)c4ccccc4)CC3)CC2)cc1Cl [Example 2-1, 2-chloro-N,N-dimethyl-4-(4-((1-(2-methyl-2-phenylpropanoyl)piperidin-4-yl)methyl)piperidin-1-yl)benzamide] | 59% | 157 nM | 5% | NO IP | – | –
COc1cccc([C@@](O)(C(=O)N2CCC(CC3CCN(c4ccc(C(=O)N(C)C)c(Cl)c4)CC3)CC2)C2CC2)c1 [Example 2-114, 2-chloro-4-[4-({1-[(2R)-2-cyclopropyl-2-hydroxy-2-(3-methoxy-phenyl)acetyl]piperidin-4-yl}methyl)piperidin-1-yl]-N,N-dimethyl-benzamide] | – | – | – | NO IP | – | EC50 [1, 6]: 266 nM; Emax [1, 7]: 19%; Emax ([2]; read-out: LXR alpha Activity @ max dose (%)): 6%
